{
  "source": "patent US20210085640A1",
  "about": "“ACYLATED CATECHIN POLYPHENOLS AND METHODS OF THEIR USE FOR THE TREATMENT OF CANCER” (Flagship Pioneering Innovations V, Inc., priority 2018, published 2021)",
  "type_in_all_cases": "cell-based",
  "key": {"T24 bladder cancer cells": {"tested_on": "T24 bladder cancer cells", "experiment": "Cancer cell survival (CellTiter-Glo), T24", "conditions": "72 h", "description": "(§1) The cells were prepared as follows. Cells were harvested during logarithmic growth, counted, and adjusted to 4.44×10^4 cells/mL with culture media. 90 μL of suspended cells were added to wells of 96-well plates for a final cell count of 4×10^3 cells/well. The plates were incubated overnight at 37 C with 5% CO2 overnight.\n(§2) The test compounds were assayed as follows. Compound solutions were mixed at 10× final concentrations in cell media: 1 μM-10 mM (fatty acids) or 100 nM-1 mM (all other compounds). […] of solution was added to each well of cells in triplicate for each concentration. Well plates were incubated for 72 h at 37 C with 5% CO2 and then assayed with CellTiter-Glo by adding 50 μL of CTG solution to each well. Cells were lysed by shaking on an orbital shaker for 5 min. Plates were incubated at room temperature for 20 min and then each well's luminescence was measured. The surviving percentage of cells was determined as:\n(§3) Survival %=(LumTest article−LumMedium control)/(LumNone treated−LumMedium control)[…]\nEfficacy was assessed at nine concentration levels for each compound and the 50% inhibition concentration (IC50) determined for each compound."}, "[1]": {"tested_on": "Daudi lymphoma cancer cells", "experiment": "Cancer cell survival (CellTiter-Glo), Daudi", "conditions": "72 h", "description": "as §1, §2, §3\nActivity was assessed at nine concentration levels for each compound and the 50% inhibition concentration (IC50) determined for each compound."}, "MCF7 breast cancer cells": {"tested_on": "MCF7 breast cancer cells", "experiment": "Cancer cell survival (CellTiter-Glo), MCF7", "conditions": "72 h", "description": "as §1, §2, §3\n(§4) Cytotoxicity was assessed at nine concentration levels for each compound and the 50% inhibition concentration (IC50) determined for each compound."}, "[2]": {"tested_on": "HCT 116 colorectal cancer cells", "experiment": "Cancer cell survival (CellTiter-Glo), HCT 116", "conditions": "HCT 116 cells, 72 h", "description": "as §1, §2, §3, §4"}, "A549 lung cancer cells": {"tested_on": "A549 lung cancer cells", "experiment": "Cancer cell survival (CellTiter-Glo), A549", "conditions": "72 h", "description": "as §1, §2, §3, §4"}, "[3]": {"tested_on": "PC-3 prostate cancer cells", "experiment": "Cancer cell survival (CellTiter-Glo), PC-3", "conditions": "PC-3 cells, 72 h", "description": "as §1, §2, §3, §4"}, "A-431 skin cancer cells": {"tested_on": "A-431 skin cancer cells", "experiment": "Cancer cell survival (CellTiter-Glo), A-431", "set-up": "Cell survival at given concentration: unit not given here", "conditions": "A-431 cells, 72 h", "description": "as §1, §2, §3, §4"}, "AGS stomach cancer cells": {"tested_on": "AGS stomach cancer cells", "experiment": "Cancer cell survival (CellTiter-Glo), AGS", "set-up": "Cell survival at given concentration: unit not given here", "description": "as §1, §2, §3, §4"}},
  "data": [
    {"molecule": "CC(O)CC(=O)O", "note": "(stereo not drawn) [beta-hydroxybutyrate]", "values": [
      {"measurement": "Cell survival at given concentration", "setting": "T24 bladder cancer cells; 1 μM, Table 3.2", "result": 0.97},
      {"measurement": "Cell survival at given concentration", "setting": "T24 bladder cancer cells; 3 μM, Table 3.2", "result": 1.00},
      {"measurement": "Cell survival at given concentration", "setting": "T24 bladder cancer cells; 10 μM, Table 3.2", "result": 0.98},
      {"measurement": "Cell survival at given concentration", "setting": "T24 bladder cancer cells; 32 μM, Table 3.2", "result": 0.95},
      {"measurement": "Cell survival at given concentration", "setting": "T24 bladder cancer cells; 100 μM, Table 3.2", "result": 0.96},
      {"measurement": "Cell survival at given concentration", "setting": "T24 bladder cancer cells; 317 μM", "result": 1.02},
      {"measurement": "Cell survival at given concentration", "setting": "T24 bladder cancer cells; 1 mM", "result": 0.99},
      {"measurement": "Cell survival at given concentration", "setting": "T24 bladder cancer cells; 3 mM", "result": 0.99},
      {"measurement": "Cell survival at given concentration", "setting": "T24 bladder cancer cells; 10 mM", "result": 1.00},
      {"measurement": "Cell survival at given concentration", "setting": "[1]; 1 μM, Table 4.2", "result": 1.01},
      {"measurement": "Cell survival at given concentration", "setting": "[1]; 3 μM, Table 4.2", "result": 0.99},
      {"measurement": "Cell survival at given concentration", "setting": "[1]; 10 μM, Table 4.2", "result": 0.98},
      {"measurement": "Cell survival at given concentration", "setting": "[1]; 32 μM, Table 4.2", "result": 0.98},
      {"measurement": "Cell survival at given concentration", "setting": "[1]; 100 μM, Table 4.2", "result": 1.02},
      {"measurement": "Cell survival at given concentration", "setting": "[1]; 317 μM", "result": 0.99},
      {"measurement": "Cell survival at given concentration", "setting": "[1]; 1 mM", "result": 0.99},
      {"measurement": "Cell survival at given concentration", "setting": "[1]; 3 mM", "result": 0.96},
      {"measurement": "Cell survival at given concentration", "setting": "[1]; 10 mM", "result": 0.91},
      {"measurement": "Cell survival at given concentration", "setting": "MCF7 breast cancer cells; 1 μM, Table 5.2", "result": 1.00},
      {"measurement": "Cell survival at given concentration", "setting": "MCF7 breast cancer cells; 3 μM, Table 5.2", "result": 1.00},
      {"measurement": "Cell survival at given concentration", "setting": "MCF7 breast cancer cells; 10 μM, Table 5.2", "result": 1.00},
      {"measurement": "Cell survival at given concentration", "setting": "MCF7 breast cancer cells; 32 μM, Table 5.2", "result": 1.01},
      {"measurement": "Cell survival at given concentration", "setting": "MCF7 breast cancer cells; 100 μM, Table 5.2", "result": 1.03},
      {"measurement": "Cell survival at given concentration", "setting": "MCF7 breast cancer cells; 317 μM", "result": 1.01},
      {"measurement": "Cell survival at given concentration", "setting": "MCF7 breast cancer cells; 1 mM", "result": 0.97},
      {"measurement": "Cell survival at given concentration", "setting": "MCF7 breast cancer cells; 3 mM", "result": 0.92},
      {"measurement": "Cell survival at given concentration", "setting": "MCF7 breast cancer cells; 10 mM", "result": 0.91},
      {"measurement": "Cell survival at given concentration", "setting": "[2]; 1 μM, Table 6.2", "result": 0.98},
      {"measurement": "Cell survival at given concentration", "setting": "[2]; 3 μM, Table 6.2", "result": 1.00},
      {"measurement": "Cell survival at given concentration", "setting": "[2]; 10 μM, Table 6.2", "result": 0.99},
      {"measurement": "Cell survival at given concentration", "setting": "[2]; 32 μM, Table 6.2", "result": 0.98},
      {"measurement": "Cell survival at given concentration", "setting": "[2]; 100 μM, Table 6.2", "result": 1.00},
      {"measurement": "Cell survival at given concentration", "setting": "[2]; 317 μM", "result": 1.03},
      {"measurement": "Cell survival at given concentration", "setting": "[2]; 1 mM", "result": 1.01},
      {"measurement": "Cell survival at given concentration", "setting": "[2]; 3 mM", "result": 0.96},
      {"measurement": "Cell survival at given concentration", "setting": "[2]; 10 mM", "result": 0.90},
      {"measurement": "Cell survival at given concentration", "setting": "A549 lung cancer cells; 1 μM, Table 7.2", "result": 1.00},
      {"measurement": "Cell survival at given concentration", "setting": "A549 lung cancer cells; 3 μM, Table 7.2", "result": 0.99},
      {"measurement": "Cell survival at given concentration", "setting": "A549 lung cancer cells; 10 μM, Table 7.2", "result": 1.01},
      {"measurement": "Cell survival at given concentration", "setting": "A549 lung cancer cells; 32 μM, Table 7.2", "result": 1.02},
      {"measurement": "Cell survival at given concentration", "setting": "A549 lung cancer cells; 100 μM, Table 7.2", "result": 1.05},
      {"measurement": "Cell survival at given concentration", "setting": "A549 lung cancer cells; 317 μM", "result": 1.01},
      {"measurement": "Cell survival at given concentration", "setting": "A549 lung cancer cells; 1 mM", "result": 1.01},
      {"measurement": "Cell survival at given concentration", "setting": "A549 lung cancer cells; 3 mM", "result": 1.01},
      {"measurement": "Cell survival at given concentration", "setting": "A549 lung cancer cells; 10 mM", "result": 0.98},
      {"measurement": "IC50", "setting": "A549 lung cancer cells; Table 7.2", "result": "> 10", "unit": "mM"},
      {"measurement": "Cell survival at given concentration", "setting": "[3]; 1 μM, Table 8.2", "result": 1.01},
      {"measurement": "Cell survival at given concentration", "setting": "[3]; 3 μM, Table 8.2", "result": 1.00},
      {"measurement": "Cell survival at given concentration", "setting": "[3]; 10 μM, Table 8.2", "result": 1.01},
      {"measurement": "Cell survival at given concentration", "setting": "[3]; 32 μM, Table 8.2", "result": 1.03},
      {"measurement": "Cell survival at given concentration", "setting": "[3]; 100 μM, Table 8.2", "result": 1.03},
      {"measurement": "Cell survival at given concentration", "setting": "[3]; 317 μM", "result": 1.03},
      {"measurement": "Cell survival at given concentration", "setting": "[3]; 1 mM", "result": 1.01},
      {"measurement": "Cell survival at given concentration", "setting": "[3]; 3 mM", "result": 1.00},
      {"measurement": "Cell survival at given concentration", "setting": "[3]; 10 mM", "result": 0.97},
      {"measurement": "Cell survival at given concentration", "setting": "A-431 skin cancer cells; 1 μM, Table 9.2", "result": 1.01},
      {"measurement": "Cell survival at given concentration", "setting": "A-431 skin cancer cells; 3 μM, Table 9.2", "result": 1.02},
      {"measurement": "Cell survival at given concentration", "setting": "A-431 skin cancer cells; 10 μM, Table 9.2", "result": 1.03},
      {"measurement": "Cell survival at given concentration", "setting": "A-431 skin cancer cells; 32 μM, Table 9.2", "result": 1.03},
      {"measurement": "Cell survival at given concentration", "setting": "A-431 skin cancer cells; 100 μM, Table 9.2", "result": 1.03},
      {"measurement": "Cell survival at given concentration", "setting": "A-431 skin cancer cells; 317 μM", "result": 1.05},
      {"measurement": "Cell survival at given concentration", "setting": "A-431 skin cancer cells; 1 mM", "result": 1.05},
      {"measurement": "Cell survival at given concentration", "setting": "A-431 skin cancer cells; 3 mM", "result": 1.03},
      {"measurement": "Cell survival at given concentration", "setting": "A-431 skin cancer cells; 10 mM", "result": 1.01},
      {"measurement": "Cell survival at given concentration", "setting": "AGS stomach cancer cells; 1 μM, Table 10.2", "result": 1.01},
      {"measurement": "Cell survival at given concentration", "setting": "AGS stomach cancer cells; 3 μM, Table 10.2", "result": 1.03},
      {"measurement": "Cell survival at given concentration", "setting": "AGS stomach cancer cells; 10 μM, Table 10.2", "result": 1.01},
      {"measurement": "Cell survival at given concentration", "setting": "AGS stomach cancer cells; 32 μM, Table 10.2", "result": 1.02},
      {"measurement": "Cell survival at given concentration", "setting": "AGS stomach cancer cells; 100 μM, Table 10.2", "result": 1.04},
      {"measurement": "Cell survival at given concentration", "setting": "AGS stomach cancer cells; 317 μM", "result": 1.03},
      {"measurement": "Cell survival at given concentration", "setting": "AGS stomach cancer cells; 1 mM", "result": 1.04},
      {"measurement": "Cell survival at given concentration", "setting": "AGS stomach cancer cells; 3 mM", "result": 1.03},
      {"measurement": "Cell survival at given concentration", "setting": "AGS stomach cancer cells; 10 mM", "result": 1.00}
    ]}
  ]
}
